In patent US8138169B2, “Combination therapy for bipolar disorder” (ComgenRx, Inc., priority 2008, dated 2012):

Test system: patients with bipolar disorder
Test: Side effects reported in patient case reports
Type: in vivo, human

For `CN(C)CCOC(c1ccccc1)c1ccccc1` [Benadryl], the akisthisia (Example 42: Benadryl 1x/day for akisthisia under Geodon) was “significant improvement”.

With `O=C1Cc2cc(CCN3CCN(c4nsc5ccccc45)CC3)c(Cl)cc2N1` [Geodon, ziprasidone] the tolerability (Example 42: Geodon 80 mg/day, felt like crawling out of their skin) was “could not tolerate the Geodon”.

With `OCCOCCN1CCN(C2=Nc3ccccc3Sc3ccccc32)CC1` [Seroquel, quetiapine fumurate] the “effect on blood sugar” value (Example 15: Seroquel given by their psychiatrist) was “elevated their blood sugar” and the sedation (Example 18: Seroquel 400 mg) was “excessive sedation in the AM”.

With `[Li]` [lithium] the side effects (Example 7: lithium 300 mg tid, stopped) was “intolerable side effects” and the side effects (Example 21: lithium 600 mg/day, improved at 300 mg) was “tremulousness and stomach discomfort along with diarrhea”.
